For experiment [1], the target named is Rac-1 (Homo sapiens (Human), UniProt P63000). Kind of experiment: Ras GTP Binding Domain Inhibition Assay, Rac-1. The method, then:
A Ras Superfamily Activity Assay (as disclosed in International Application No. PCT/US2018/038613, filed Jun. 20, 2018, which is incorporated by reference in its entirety) was used as a specific assay to evaluate compounds against the following for the following Ras Superfamily proteins: KRas wild type, KRas Q61H mutant, KRas G12C mutant, KRas G12D mutant, Rac-1, and Rho-A.
Buffer-I: • 25 mM Tris-HCl, pH 7.4 • 27 mM KCl • 137 mM NaCl • 1 mM MgCl2 • 1 mM DTT
Buffer-II: • 50 mM Tris-HCl, pH 7.0 • 1 mM MgCl2 • 1 mM DTT
The small GTPases proteins: KRas wild type. KRas Q61H mutant, KRas G12C mutant, KRas G12D mutants, Rac-1, and Rho-A were expressed as His-tagged proteins. In addition, the Guanosine nucleotide Exchange Factor (GEF) Sos protein (residues 556-1049) was expressed as a His-tagged protein. In cells, the guanine nucleotide exchange factor Sos protein promotes activation of Ras proteins by stimulating an exchange of GDP for GTP. The inclusion of Sos to the Ras GTP binding domain inhibition assay may be considered as an alternative representation of physiological cellular conditions for evaluating the inhibitory activity of some of the tested small molecules.
For the assay, all purified small GTPases proteins were diluted in Buffer-I or Buffer-II to a final concentration of 10-30 μg/mL. 200 μL of each diluted protein was added to a nickel-coated 96-well plate and incubated overnight at 4° C. Then the protein solution was discarded and 200 μL of Buffer-I or Buffer-II was added to each well in the presence of 1% DMSO. Compounds to be tested were added to the protein-coated wells at final concentration of 20 μM, and incubated for 3 hours at room temperature with and without 10-30 μg/mL of Sos added to the final hour of the incubation. When performing IC50 measurements a serial dilution of all tested concentrations was added. Then Cy3-GTP or Cy5-GTP was added to each well to a final concentration of 100 nM. The labeled GTP was incubated for 45 minutes at room temperature. Following GTP incubation, wells were washed 3× in Buffer-I or Buffer-II and 200 μL of Buffer-I or Buffer-II was added to each well. Following washes, the amount of bound labeled-GTP was measured using a SpectraMax M3 (Molecular Devices).

Experiment [2] has as its system Smad2/3 phosphorylation. Briefly: Phospho-Smad2/3 Inhibition Assay in Panc-1 (western blot). The class given is cell-based. The settings on record: Homo sapiens; for inhibition at 10 µM: 3 hours, PANC-1 stimulated with 10 ng/ml TGF-b1 for 1 hour, read-out: % inh of Smad2/3 phosphorylation in PANC-1. The protocol:
(§1) Cell lines: Human tumor-derived pancreatic cancer cell line Panc-1 and mouse muscle myoblast C2C12 were purchased from American Type Culture Collection and grown in complete DMEM-High Glucose, supplemented with penicillin (100 U/mL), streptomycin (100 μg/mL), and 10% heat-inactivated FBS at 37° C. in a humidified incubator with 5% CO2.
(§2) Method: Cells were plated at 350000 cells/well density in a 12-well plate, allowed 3 hours to adhere to the plate, then starved in the appropriate medium in the presence of 0.5% FBS overnight. The small molecules to be tested were added to the cells in the final concentration of 10 μM in the presence of 0.3% DMSO for 3 hours incubation at 37° C. For IC50 value determination, serial dilutions of compounds were added to cells under the same conditions. Next, Panc-1 cells were stimulated with 10 ng/ml TGF-b1 for 1 hour, and C2C12 cells were stimulated with 10 ng/ml TGF-b1 for 20 minutes (recombinant human TGF-b1, R&D Systems). After stimulation cells were lysed with lysis buffer containing 1% Triton X-100, EDTA, and Halt™ Protease & Phosphatase Inhibitor Cocktail (Thermo Scientific). Protein concentration was assessed by BCA protein assay (Thermo Scientific). Phosphorylation level of Smad2/Smad3 was determined by western blot.
(§3) Western blot protocol: Equal amounts of protein (15-50 μg) were separated by SDS-PAGE and transferred to nitrocellulose membranes (Invitrogen by Thermo Fisher Scientific). The membrane was stained with Ponceau S Stain (Boston BioProducts) to verify uniform protein loading. Membranes were blocked with 10% milk and phosphorylation levels of Smad2/Smad3 were assessed by incubating overnight at 4° C. with the following antibodies: Phospho-Smad2 (Ser465/467) and Phosph-Smad3 (Ser423/425), both from Cell Signaling Technology. Then the membranes were incubated with HRP-conjugated secondary antibody (Jackson Immunoresearch, West Grove, PA). Bands were incubated in Amersham ECL Prime Western Blotting Detection Reagent (GE Healthcare) and visualized using the ChemiDoc MP imaging system (Bio-Rad).
A general note: Immunoblotting shows a protein as a band on a membrane.

The test system of experiment [3] is MAPK p38. Briefly: MAPK p38 Activation Assay in Panc-1 (western blot). Also noted: key: Y = yes; N = No. The note with it: at 10 μM. The class given is cell-based, Human. The method, then:
as §1
as §2, with “MAPK p38” for “Smad2/Smad3”
as §3, with “antibody: Phospho-p38 MAPK (Thr180/Tyr182),” for “antibodies: Phospho-Smad2 (Ser465/467) and Phosph-Smad3 (Ser423/425), both”

[4] abbreviates: without SOS, read-out: Rac-1: % inh.

Twelve molecules from US20240124483A1, “Methods for the Treatment of Fibrotic Disease” (SHY Therapeutics, LLC, priority 2021, published 2024) can be followed below.

Like-named read-outs stand apart in the source and are kept apart here.

For `COc1cc(-c2sc3nc(-c4nccn4C)nc(N[C@@H]4CC[C@H](OC)C4)c3c2-c2ccccc2)ccn1` (racemic) [Compound 44, rac-N-((1R,3S)-3-Methoxycyclopentyl)-6-(2-methoxypyridin-4-yl)-2-(1-methyl-1H-imidazol-2-yl)-5-phenylthieno[2,3-d]pyrimidin-4-amine], the inhibition at 20 µM in experiment [1] (setting [4]) was determined as 0%. Besides, in experiment [2], the inhibition at 10 µM is 76 to 100%. In experiment [3], the “Activation of MAPK p38 in PANC-1” value is “N”.
In the same order, the values of `COCCCn1c(-c2nccn2C)nc2sc(-c3ccn(C(C)C)n3)c(-c3ccccc3)c2c1=O` [Compound 36, 6-(1-Isopropyl-1H-pyrazol-3-yl)-3-(3-methoxypropyl)-2-(1-methyl-1H-imidazol-2-yl)-5-phenylthieno[2,3-d]pyrimidin-4(3H)-one] are 0%, 0% and “Y”.
For `COc1cccc(-c2sc3nc(-c4nccn4C)nc(N[C@H]4C[C@H](OC)C4)c3c2-c2ccccc2)c1F` [Compound 40, 6-(2-Fluoro-3-methoxyphenyl)-N-((1r,3r)-3-methoxycyclobutyl)-2-(1-methyl-1H-imidazol-2-yl)-5-phenylthieno[2,3-d]pyrimidin-4-amine] the same measures were 26 to 45%, 76 to 100% and “Y”.
For `COCCNc1nc(-c2cn(C)cn2)nc2sc(-c3cccc(OC)c3Cl)c(-c3ccc(OC)cc3)c12` [Compound 8, 6-(2-Chloro-3-methoxyphenyl)-N-(2-methoxyethyl)-5-(4-methoxyphenyl)-2-(1-methyl-1H-imidazol-4-yl)thieno[2,3-d]pyrimidin-4-amine], the inhibition at 20 µM lay in the range of 46 to 75% in experiment [1] (+ SOS, read-out: Rac-1 + SOS: % inh.) and 46 to 75% in experiment [1] (setting [4]). For the same molecule, the inhibition at 10 µM in experiment [2] was in the range of 76 to 100%. Also, the IC50 (usually the concentration needed to halve the response being measured) in experiment [2] (PANC-1, TGF-b1 stimulated) fell in the range of 5 to 10 µM. Further, the “Activation of MAPK p38 in PANC-1” value in experiment [3] was “Y”.
In the case of `Cc1c(-c2ccn(C(C)C)n2)sc2nc(-c3nccn3C)nc(NCC3COCCN3C)c12` (racemic) [Compound 24, rac-6-(1-Isopropyl-1H-pyrazol-3-yl)-5-methyl-2-(1-methyl-1H-imidazol-2-yl)-N-((4-methylmorpholin-3-yl)methyl)thieno[2,3-d]pyrimidin-4-amine], in experiment [1] (setting [4]), the inhibition at 20 µM was in the range of 76 to 100%. Further, the inhibition at 10 µM in experiment [2] was 0%. For the same molecule, in experiment [3], the “Activation of MAPK p38 in PANC-1” value is recorded as “Y”.
For `COCCCNc1nc(-c2nccn2C)nc2sc(-c3ccccc3)c(-c3ccccc3)c12` [Compound 3, N-(3-Methoxypropyl)-2-(1-methyl-1H-imidazol-2-yl)-5,6-diphenylthieno[2,3-d]pyrimidin-4-amine] the same measures were 46 to 75%, 0% and “Y”.
In the same order, the values of `Cc1c(-c2ccn(C(C)C)n2)sc2nc(-c3nccn3C)nc(NCCN3CCOCC3)c12` [Compound 22, 6-(1-Isopropyl-1H-pyrazol-3-yl)-5-methyl-2-(1-methyl-1H-imidazol-2-yl)-N-(2-morpholinoethyl)thieno[2,3-d]pyrimidin-4-amine] are 76 to 100%, 0% and “Y”.
On to `COc1cccc(Nc2nc(-c3nccn3C)nc3sc(-c4ccn(C(C)C)n4)c(C)c23)c1` [Compound 17, 6-(1-Isopropyl-1H-pyrazol-3-yl)-N-(3-methoxyphenyl)-5-methyl-2-(1-methyl-1H-imidazol-2-yl)thieno[2,3-d]pyrimidin-4-amine], for which the inhibition at 20 µM in experiment [1] (setting [4]) fell in the range of 26 to 45%. In experiment [2], the inhibition at 10 µM fell in the range of 46 to 75%. Further, the “Activation of MAPK p38 in PANC-1” value in experiment [3] is “Y”.
In the same order, the values of `COCCO[C@H]1CC[C@@H](Nc2nc(-c3nccn3C)nc3sc(-c4ccn(C(C)C)n4)c(C)c23)C1` (racemic) [Compound 20, rac-6-(1-Isopropyl-1H-pyrazol-3-yl)-N-((1R,3S)-3-(2-methoxyethoxy)cyclopentyl)-5-methyl-2-(1-methyl-1H-imidazol-2-yl)thieno[2,3-d]pyrimidin-4-amine] are 46 to 75%, 1 to 25% and “Y”.
In the same order, the values of `COCCn1c(-c2nccn2C)nc2sc(-c3ccn(C(C)C)n3)c(C)c2c1=O` [Compound 29, 6-(1-Isopropyl-1H-pyrazol-3-yl)-3-(2-methoxyethyl)-5-methyl-2-(1-methyl-1H-imidazol-2-yl)thieno[2,3-d]pyrimidin-4(3H)-one] are 0%, 0% and “Y”.
Regarding `COCCCn1c(-c2nccn2C)nc2sc(-c3ccn(C(C)C)n3)c(C)c2c1=O` [Compound 31, 6-(1-Isopropyl-1H-pyrazol-3-yl)-3-(3-methoxypropyl)-5-methyl-2-(1-methyl-1H-imidazol-2-yl)thieno[2,3-d]pyrimidin-4(3H)-one], the inhibition at 20 µM in experiment [1] (setting [4]) was 0%. Also, in experiment [2], the inhibition at 10 µM was 0%. Besides, the “Activation of MAPK p38 in PANC-1” value in experiment [3] was “N”.
As to `Cc1c(-c2ccn(C(C)C)n2)sc2nc(-c3nccn3C)nc(NCCN3CCS(=O)(=O)CC3)c12` [Compound 23, 4-(2-((6-(1-Isopropyl-1H-pyrazol-3-yl)-5-methyl-2-(1-methyl-1H-imidazol-2-yl)thieno[2,3-d]pyrimidin-4-yl)amino)ethyl)thiomorpholine 1,1-dioxide], the inhibition at 20 µM in experiment [1] (setting [4]) fell in the range of 46 to 75%. Moreover, in experiment [2], the inhibition at 10 µM amounted to 0%. Besides, the “Activation of MAPK p38 in PANC-1” value in experiment [3] is recorded as “Y”.
